Measured values: patent US11840547B1, “Nano-sized 4-Bromo-2-[(9H-purin-6-ylimino)-methyl]-phenol imine Pd(II) complex for superior pharmaceutical applications” (KING FAISAL UNIVERSITY, priority 2023, dated 2023)
≈ marks a conversion by molar mass, not a printed value. Where two headings read alike, the source gives them in different places. Blank lines part the entries; values can stand above or below the molecule they belong to.

Columns and labels:
Aspergillus flavus fungi = assay: Antifungal activity against Aspergillus flavus (inhibition zone, MIC); assay type: cell-based; details: in vitro
breast cancer cell line [1] = assay: Antioxidant activity; assay type: cell-based; details: printed as against a breast cancer cell line
E. coli bacteria = assay: Antimicrobial activity against E. coli (inhibition zone, MIC); assay type: cell-based; details: in vitro
breast cancer cell line [2] = assay: In vitro anti-cancer activity against breast cancer cell line; assay type: cell-based, human
[3] = listed as prepared nano complex

Molecule: 4-Bromo-2-[(9H-purin-6-ylimino)-methyl]-phenol imine Pd(II) complex [prepared complex]
MIC (Aspergillus flavus fungi): 1.50 µg/mL | inhibition zone (Aspergillus flavus fungi): 30 mm | MIC (Aspergillus flavus fungi; listed as present complex): about 1.50 μg/ml | inhibition zone (Aspergillus flavus fungi; listed as present complex): about 30 mm | IC50 (antioxidant activity) (breast cancer cell line [1]): 7.5 µg/mL | MIC (E. coli bacteria; [3]): 1.00 µg/mL | inhibition zone (E. coli bacteria; [3]): 40 mm | MIC (E. coli bacteria; listed as present complex): about 1.0 μg/ml | inhibition zone (E. coli bacteria; listed as present complex): about 40 mm | IC50 (anticancer activity) (breast cancer cell line [2]): 2.2 µg/mL

Molecule: O=C1O[C@H]([C@@H](O)CO)C(O)=C1O [1-ascorbic acid, reference compound]
IC50 (antioxidant activity) (breast cancer cell line [1]): 45.7 µg/mL (≈ 259 µM)

Molecule: CC1COc2c(N3CCN(C)CC3)c(F)cc3c(=O)c(C(=O)O)cn1c23 (stereo not shown) [Ofloxacin, reference compound]
MIC (E. coli bacteria; Escherichia coli, read-out: MIC): 2.5 µg/mL (≈ 6.92 µM) | inhibition zone (E. coli bacteria): 35 mm

Further lines, with some results ahead:

MIC (Aspergillus flavus fungi; read-out: MIC): 2 µg/mL (≈ 6.53 µM)
Molecule: OC(Cn1cncn1)(Cn1cncn1)c1ccc(F)cc1F [Fluconazol, reference compound]
inhibition zone (Aspergillus flavus fungi): 24 mm

IC50 (breast cancer cell line [2]; Homo sapiens, read-out: IC50 (anticancer activity)): 4.7 µg/mL (≈ 5.8 µM)
Molecule: CC[C@]1(O)C[C@@H]2CN(CCc3c([nH]c4ccccc34)[C@@](C(=O)OC)(c3cc4c(cc3OC)N(C)[C@H]3[C@@](O)(C(=O)OC)[C@H](OC(C)=O)[C@]5(CC)C=CCN6CC[C@]43[C@@H]65)C2)C1 [vinblastine, reference compound]
